According to patent US20240000794A1, “LACTAM AND LACTONE DERIVATIVES FOR USE IN THE TREATMENT OF A VIRAL INFECTION SUCH AS COVID-19” (UNIVERSITÉ CATHOLIQUE DE LOUVAIN, priority 2020, published 2024):
Like-named read-outs stand apart in the source and are kept apart here.

Experiments:
[1] = biological target: SARS-CoV-2 Mpro (Severe acute respiratory syndrome coronavirus 2, UniProt P0DTD1); assay type: biochemical
[2] = system: SARS-CoV-2; assay type: cell-based; conditions: 100 μM compound, 24 hours post-infection
[3] = system: SARS-CoV-2; assay type: cell-based; conditions: Caco-2 cells, MOI 0.01, 24 hours post-infection
[4] = system: SARS-CoV-2; assay type: cell-based; conditions: Caco-2 cells; for reduction of virus production in the supernatants: after 8, 12 and 24 h, at concentrations as low as 1μM; for reduction of SARS-Cov2 RNA levels in infected cells: after 4 hours
[5] = system: SARS-CoV-2; assay type: cell-based; conditions: Calu-3 human lung cells, MOI 0.01, 24 hours post-infection
[6] = system: SARS-CoV-2; assay type: cell-based; conditions: primary bronchial epithelial cells, 10 μM or 1 μM, 48 h post-infection
[7] = system: SARS-CoV-2; assay type: cell-based; conditions: primary nasal epithelial cells, 10 μM or 1 μM, 48 h post-infection
[8] = system: syncytia formation in SARS-CoV-2 infected Vero cells; assay type: cell-based
[9] = system: syncytia formation in SARS-CoV-2 infected A549-ACE2/TMPRSS2 cells; assay type: cell-based
[10] = system: HCoV-OC43; assay type: cell-based; conditions: 10 μM, HRT-18G cells

Compound: O=C1CSC[C@@H](C(=O)O)N1 [lactam 2, (R)-5-oxothiomorpholine-3-carboxylic acid]
- inhibition of SARS-CoV-2 Mpro ([1]; 10 μM compound, Mpro at 2 μM): about 50%
- inhibition of SARS-CoV-2 Mpro ([1]; 100 μM compound): complete inhibition
- infectivity of SARS-CoV2 in Vero cells [2]: reducing the infectivity
- lowest concentration reducing the infectivity of SARS-CoV-2 [3]: 45 nM
- reduction of virus production in the supernatants [4]: about 100 fold
- reduction of SARS-Cov2 RNA levels in infected cells [4]: about 20%
- lowest concentration reducing the infectivity of SARS-CoV-2 [5]: 45 nM
- SARS-Cov2 RNA levels in infected cells [6]: reduction in SARS-Cov2 RNA levels
- virus production (supernatants titered on Vero cells) [6]: reduction of virus production
- SARS-Cov2 RNA levels in infected cells [7]: reduction in SARS-Cov2 RNA levels
- virus production (supernatants titered on Vero cells) [7]: reduction of virus production
- syncytia formation (fusion index) [8]: reducing syncytia formation
- syncytia formation (fusion index) [9]: reducing syncytia formation
- activity on HCov-OC43 [10]: active

Compound: O=C1CCC[C@@H](C(=O)O)N1 [lactam 3, (S)-6-oxopiperidine-2-carboxylic acid]
- lowest concentration reducing the infectivity of SARS-CoV-2 [3]: 15 nM
- reduction of virus production in the supernatants [4]: about 100 fold
- reduction of SARS-Cov2 RNA levels in infected cells [4]: about 20%
